Measurements published in PMC5507466, “The ubiquitin-conjugating enzyme CDC34 is essential for cytokinesis in contrast to putative subunits of a SCF complex in Trypanosoma brucei” (PLoS Neglected Tropical Diseases, 2017).

Target: T1, TbCDC34 (Trypanosoma brucei, UniProt Q382B7)
T1 construct: gene Tb11.01.5790; N-terminal 6His-tagged, expressed in E. coli BL21(DE3)+pLysE, Ni-NTA purified; catalytic Cys84, Ser86
T1 sequence (Q382B7 1-247): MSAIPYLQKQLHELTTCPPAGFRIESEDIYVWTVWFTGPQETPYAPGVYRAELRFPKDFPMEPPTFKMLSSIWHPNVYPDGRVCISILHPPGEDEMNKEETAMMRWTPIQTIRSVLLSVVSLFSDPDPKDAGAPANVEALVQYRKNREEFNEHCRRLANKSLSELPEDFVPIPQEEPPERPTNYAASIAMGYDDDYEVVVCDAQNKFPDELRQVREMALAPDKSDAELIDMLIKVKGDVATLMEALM
Assay: in vitro gel-based ubiquitination assay (anti-ubiquitin and anti-His western blot)
Format: biochemical
Settings: 300 μM CC0651 vs DMSO; 10 μM E2, 100 nM human E1, 5 μM human ubiquitin; ATP; 37 °C, 0-4 h

## COCC(=O)N[C@@H](Cc1ccc(-c2cc(Cl)cc(Cl)c2)cc1)[C@H](O)[C@@H](O)C(=O)O [CC0651]
  in vitro gel-based ubiquitination assay (anti-ubiquitin and anti-His western blo): addition of CC0651 to the reaction had modest, but detectable effect on TbCDC34 activity
